{"source": "patent US8859587B2", "about": "“(2E)-3-phenyl-N-[2,2,2-Trifluoro-1-[[8-quinolineamino)thiomethyl]amino]ethyl]-2-acrylamide and pharmaceutical uses thereof” (Chinese PLA General Hospital, priority 2010, dated 2014)", "format_in_all_cases": "cell-based, Wistar rats", "key": {"[1]": {"test_system": "cardiac muscle cells induced by Tunicamycin (TM)", "assay": "Survival rate of TM-induced cardiac muscle cells detected by MTT method", "details": "for Cell survival rate (%): MTT", "method": "The separation and culture of cardiomyocyte refer to the method of differential adhesion separation (Kreider, A. Messing, H. Doan, S. U. Kim, R. P. Lisak and D. E. Pleasure, Enrichment of Schwann cell cultures from neonatal rat sciatic nerve by differential adhesion, Brain Res 2 (1981), pp. 433-444.), Wistar neonate rats newly born within 24 h were used to obtain primary cardiac muscle cells.\nThe separated cardiac muscle cells were inoculated in an amount of 10^4 cells per well to a 96-well plate, and the volume of each well was 100 μl (marginal wells were filled with sterile PBS). […] After continuous inoculation, each well was added with 20 μl of MTT solution (5 mg/ml, formulated with PBS (pH=7.4), i.e., 0.5% MTT), and the cultivation was continued for 4 h. After the end of cultivation, culture medium in wells was carefully sucked out. Each well was added with 150 μl of DMSO, shaken at a low speed in a shaking table for 10 min, so that the crystal was sufficiently dissolved. The optical density (OD) value of each well was measured at wavelength of 490 nm by enzyme-linked immunoassay instrument, and each well was repeatedly measured for 3 times and the results were recorded. The cell survival rate at each time point was calculated according to: […], and a cell growth curve was drawn by using time as abscissa and optical density as ordinate."}, "[2]": {"test_system": "caspase-12 and cleaved caspase-12", "assay": "Western blot of caspase-12 and cleaved caspase-12 in TM-induced cardiac muscle cells", "method": "(§1) (12000 rpm×10 min), collected supernatant. Nitrocellulose membrane was dipped in a transferring buffer for 15-20 min in advance. Sampled in 50 μg protein/lane, subjected to 10% polyacrylamide gel SDS-PAGE electrophoretic separation, the gel was then tiled in electrotransferring clamp, in which sponge, filter paper, gel, nitrocellulose membrane, filter paper and sponge were mounted from negative electrode to positive electrode in order. Constant current 350 mA, electrotransferred for 45 min. Electrotransferring membrane to […], the nitrocellulose membrane was taken out, the membrane was washed with TBST for 2 min, sealed with 5% defatted milk powder at room temperature for 1 h, added with first antibody (1:1000) and incubated at 4° C. overnight, the membrane was washed with TBST, 3 times×5 min, then […] second antibody was added, incubated at room temperature for 1 h, washed with TBST, 3 times×5 min, soaked separately with TSM1 and TSM2 for 5 min and 10 min, developed with chromogenic substrates 6.6 μl NBT and 3.3 μl BCIP dissolved in 1 ml of TSM2, after bonds become clear, the reaction was terminated by washing with water. After the end of development, the records were stored by scanning or taking photos."}, "elF2α and P-elF2α": {"test_system": "elF2α and P-elF2α", "assay": "Western blot of elF2α and P-elF2α expression", "details": "1, 2, 5, 10, 20, 40 μM for 48 h", "method": "as §1"}}, "data": [{"smiles": "O=C(/C=C/c1ccccc1)NC(NC(=S)Nc1cccc2cccnc12)C(Cl)(Cl)Cl", "note": "(stereo not drawn) [Compound of Formula I, (2E)-3-phenyl-N-[2,2,2-trichloro-1-[[(8-quinolylamino)thiomethyl]amino]ethyl]-2-acrylamide]", "values": [{"measurement": "Cell survival rate (%)", "setting": "[1]; 5 μM pretreatment 30 min + TM 5 μg/ml", "result": "82.6106 ± 8.1018", "unit": "%"}, {"measurement": "Cell survival rate (%)", "setting": "[1]; 10 μM pretreatment 30 min + TM 5 μg/ml", "result": "83.8371 ± 8.2608", "unit": "%"}, {"measurement": "Cell survival rate (%)", "setting": "[1]; 20 μM pretreatment 30 min + TM 5 μg/ml", "result": "84.6255 ± 5.5519", "unit": "%"}, {"measurement": "Cell survival rate (%)", "setting": "[1]; 40 μM + TM 5 μg/ml", "result": "85.4139 ± 5.6916", "unit": "%"}, {"measurement": "cell survival rate in comparison with the TM group", "setting": "[1]; pretreatment in various concentrations, p<0.05", "result": "significant increase of cell survival rate"}, {"measurement": "expression of Cleaved caspase-12", "setting": "[2]; 10, 20, 40 μM + TM 5 μg/ml", "result": "gradually decreases with the increase of the concentration"}, {"measurement": "Caspase-12 expression", "setting": "[2]; different concentrations for 24 h", "result": "no significant change"}, {"measurement": "expression level of P-elF2α", "setting": "elF2α and P-elF2α", "result": "gradually increases with the increase of the concentration"}, {"measurement": "expression levels of elF2α", "setting": "elF2α and P-elF2α", "result": "no significant change"}]}]}
